# Measured values reported in US20110034565A1, “PSYCHO-PHARMACEUTICALS” (University College Dublin, National University of Ireland, …, priority 2008, published 2011).
# Entries after “also recorded” stand apart in the source; their conditions may differ.
# Legend:
# frontal cortex = conditions: after administration; Society for Neuroscience meeting November 2000; cited from earlier work
# C57B16 mice [1] = experiment: Novel object recognition (NOR) test; assay type: in vivo; conditions: FIG. 4
# From the text: This test is useful for evaluating the role of experimental manipulations on cognition. The recognition test is based on the natural tendency of rodents to investigate a novel object instead of a familiar one. The choice to explore the novel object reflects the use of learning and (recognition) memory processes. Novel Object Recognition (NOR) is based on the premise that rodents will explore a novel object more than a familiar one, but only if they remember the familiar one. This tendency is actually shared by humans, as looking time is often used to make inferences about an infant's memory in the absence of explicit, verbal recognition.
# Before training the animals with objects, they are first allowed to acclimatise to the testing environment, a white Perspex box (30 cm by 20 cm) equipped with an overhead camera. After an acclimation session, the animals are ready for the training stage. […]
# The amount of time that the rodents spends exploring each object can be calculated by hand or by using a computer program receiving input from the overhead camera. […]
# rats reared in isolation = experiment: Pre-pulse inhibition (PPI) of the startle response in rats reared in isolation; assay type: in vivo; conditions: 20 mg/kg, p<0.05, two-way ANOVA, FIG. 5B
# From the text: This reduction or inhibition of startle is not observed in the isolated animals.
# One of the most robust, non-invasive rodent models used for studies relating to schizophrenia is isolation rearing of rats (Weiss and Feldon, 2001; Fone and Porkess, 2008). […] PPI is used as an operational measure of sensorimotor gating and is known to be defective in schizophrenics (Swerdlow et al., 1994; Ludewig et al., 2002). […] Reduction or inhibition of startle is not observed in the isolated animals control.
# C57B16 mice [2] = experiment: Water maze spatial learning; assay type: in vivo; conditions: i.p. once daily prior to testing, FIG. 6
# Description: The Morris water maze (MWM) is a test of spatial learning for rodents that relies on distal cues to navigate from start locations around the perimeter of an open swimming arena to locate a submerged escape platform. Spatial learning is assessed across repeated trials and reference memory is determined by preference for the platform area when the platform is absent.
# The test apparatus consists of a large circular pool (1 m diameter, 80 cm high, temperature 26° C.) with a platform (11 cm diameter) submerged 1.5 cm below the surface. Both the pool and the platform were constructed of black polyvinyl plastic, which offered no intra-maze cues. The experimental room contained several extra-maze visual cues. During training the platform was hidden in the same quadrant 30 cm away from the edge of the maze. There were five trials, each of them beginning with the rat facing the wall of the maze in one of three different locations. The time taken for the rat to find the platform within a 90s period was recorded. Probe trials where the platform was removed from the maze and the time the animal spent in the target quadrant were also performed. […]
# Finally, drugs inducing neurobehavioural profile are evaluated in the water maze spatial learning paradigm, a robust task of information acquisition and consolidation—a measure of cognitive action
# C57B16 mice [3] = experiment: Pre-pulse inhibition (PPI) of the startle response in mice; assay type: in vivo; conditions: 20 mg/kg i.p., FIG. 5A
# From the text: Prepulse inhibition is a procedure whereby a preceding stimulus attenuates the startle response. The reduced ability to filter out irrelevant auditory stimulation is a characteristic which is thought to contribute to certain manifestations of conditions including inattention, distractibility, and cognitive deficits. The test is quite useful for evaluating transgenic models of schizophrenia as well as to screen potential antipsychotic drugs.
# An example of one way of testing for PPI: In the prepulse inhibition (PPI) procedure, the rodent is placed in a small chamber and exposed to a brief pulse of noise. […]
# The main three parts of the procedure are prepulse, startle stimulus, and startle reflex. […] Startle response is measured in rodents using the so-called automated “startle chambers” or “stabilimeter chambers”, with detectors recording whole-body reaction. In humans, the movements of oculomotor muscles (“eye-blink reflex” or “eye-blink response” assessed using electromyographic recording of orbicularis oculi muscle and by oculography) could be used as a measure. […]
# Mepfarynol was administered by the intraperitoneal route at the doses indicated and as per details outlined above. Values were analysed using a two way ANOVA and Student t-test and those with a p value<0.05 were accepted as significant and where appropriate are indicated with an asterisk.
# C57B16 mice [4] = experiment: Neurobehavioural screening (modified SHIRPA protocol), neophobia; assay type: in vivo; conditions: chronic administration protocol, 1 dose/day prior to testing
# Description: The Experimental protocol employed in the behavioural evaluation of Meparfynol is outlined in FIG. 7. Two separate cohorts of C57B16 mice were employed. Cohort 1 was used to evaluate the drug effect on prepulse inhibition, open-field and novel object recognition. Cohort 2 was used to evaluate drug effects on spatial learning. The behavioural tests were administered in sequence as per day number indicated in the bar. The drug was administered by the intraperitoneal route and on the day of training the drug was administered after the behavioural analysis. Meparfynol/UCD-1216 was administered at doses of 20 and 50 mg/kg. The compounds were administered once daily, via the intraperitoneal route, for 7 days prior to testing and the animals were drug-free at time of training.
# A modified SHIRPA protocol was adopted in order to provide an in vivo drug profile. The SHIRPA protocol is used in both academic and industrial environments for an initial behavioural characterisation of potential psychopharmaceuticals. The first behavioural tier analysis of our modified screen comprised open-field (FIG. 3), novel object recognition (NOR; FIG. 4), and pre-pulse inhibition (PPI; FIGS. 5A and 5B) paradigms. These psycho-pharmacological tests are described in more detail below: […]
# C57B16 mice [5] = experiment: Open field test; assay type: in vivo; conditions: 20 and 50 mg/kg i.p. once daily for 7 days prior to testing, FIG. 3
# From the text: The Open Field test is designed to measure behavioural responses such as locomotor activity, hyperactivity, and exploratory behaviors. Open Field is also used as a measure of anxiety. Rats and mice tend to avoid brightly illuminated, novel, open spaces, so the open field environment acts as an anxiogenic stimulus and allows for measurement of anxiety-induced locomotor activity and exploratory behaviours. Open field testing is a one trial test with little or no impact on the animal's subsequent behaviour. The apparatus for the Open Field test was a square (100 cm by 100 cm) made of white Perspex. Each rat is placed in a corner of the field and its behaviour recorded for five minutes. All activity is recorded by a video camera mounted above the open field and scored in real-time (or digitized and scored later) by the advanced motion-recognition software package Ethovision by Noldus, that detects and analyzes the movements of the rat or mouse. The total distance, average speed, rearing/elongation behaviour, and time spent in various parts of the field (such as, for example, the border areas vs. the open, middle area) is measured and analysed. Testing is carried out in a temperature, noise and light controlled room.
# The Experimental protocol employed in the behavioural evaluation of Meparfynol is outlined in FIG. 7. Two separate cohorts of C57B16 mice were employed. […]
# [6] = tested on: receptors (cell lines that express only one type of receptor); experiment: Novascreen receptor affinity screen (competition with a reference ligand); assay type: binding; conditions: 1 μM Meparfynol, all top ranking receptors; FIG. 8C
# Description: Analysis of receptor affinities was performed by Novascreen™ (www.novascreen.com) and those displacing >20% of the natural ligand are indicated by the filled boxes. Blood levels of Mepfarynol were determined by GC mass spectroscopy in separate samples taken from a cannulated jugular at increasing time intervals following a single intraperitoneal injection of the drug ([…]).
# The higher the target inhibition value, the greater the affinity Meparfynol has for this particular receptor as it displaces a greater proportion of the reference ligand. This assay is an automated high throughput assay performed on cell lines that express only one type of receptor and was carried out by Novascreen (www.novascreen.com).
# [7] = in vivo; cited from earlier work
compound,measurement,setting,value
COc1ccc(NS(=O)(=O)c2sc3ccc(Cl)cc3c2C)cc1N1CCNCC1 [SB-271046],glutamate and aspartate levels in the frontal cortex,frontal cortex,significant increase
same,"noradrenaline, dopamine or 5-HT levels",frontal cortex,without affecting
"C#C[C@](C)(O)CC (stereo in doubt) [Meparfynol, 3-methylpent-1-yn-3-ol]",working memory as measured by the NOR test (exploratory bias for the novel object),C57B16 mice [1]; 20 and 50 mg/kg i.p. once daily for 7 days prior to testing,modest enhancement
same,novel object exploratory time,C57B16 mice [1]; compared to the vehicle-treated controls,significantly reduced
same,pre-pulse inhibition of startle response,rats reared in isolation,significantly enhances
same,spatial learning in the water maze,C57B16 mice [2],enhanced spatial learning; also recorded: significant pro-cognitive actions
same,pre-pulse inhibition of startle response,C57B16 mice [3],significantly enhances
same,neophobia (fear of anything new),C57B16 mice [4],reduced neophobia
same,effect in the open-field paradigm (locomotor activity),C57B16 mice [5],little effect
same,percent target inhibition (reference ligand prevented from binding),[6],less than 20%
"CC12CC3CC(C)(C1)CC(N)(C3)C2 [Memantine, 1-amino-3,5-dimethyl adamantane]",administered dose excreted unchanged in urine,[7],57-82%
